In US9365575B2, “Kinase inhibitors” (Allergan, Inc., priority 2012, dated 2016):

Molecular target: VEGFR2 (Homo sapiens (Human), UniProt P35968)
Assay: VEGFR2 Kinase Assay (biochemical KDR kinase assay, poly-Glu-Tyr ELISA)
Conditions: for IC50: purified cytoplasmic domain KDR protein, 2.7 μM ATP, 15 minute incubation at 30° C., read-out: VEGFR2 Enzyme IC50; for VEGFR2 potency as shown in this assay (in words): statement in words on the Table 2 data
Procedure: Biochemical KDR kinase assays were performed in 96 well microtiter plates that were coated overnight with 75 μg/well of poly-Glu-Tyr (4:1) in 10 mM Phosphate Buffered Saline (PBS), pH 7.4. The coated plates were washed with 2 mLs per well PBS+0.05% Tween-20 (PBS-T), blocked by incubation with PBS containing 1% BSA, then washed with 2 mLs per well PBS-T prior to starting the reaction. Reactions were carried out in 100 μL reaction volumes containing 2.7 μM ATP in kinase buffer (50 mM Hepes buffer pH 7.4, 20 mM MgCl2, 0.1 mM MnCl2 and 0.2 mM Na3VO4). […] Reactions were initiated by the addition 20 ul per well of kinase buffer containing 200-300 ng purified cytoplasmic domain KDR protein (BPS Bioscience, San Diego, Calif.). Following a 15 minute incubation at 30° C., the reactions were washed 2 mLs per well PBS-T. 100 μl of a monoclonal anti-phosphotyrosine antibody-peroxidase conjugate diluted 1:10,000 in PBS-T was added to the wells for 30 minutes. Following a 2 mLs per well wash with PBS-Tween-20, 100 μl of O-Phenylenediamine Dihydrochloride in phosphate-citrate buffer, containing urea hydrogen peroxide, was added to the wells for 7-10 minutes as a colorimetric substrate for the peroxidase. The reaction was terminated by the addition of 100 μl of 2.5N H2SO4 to each well and read using a microplate ELISA reader set at 492 nm. IC50 values for compound inhibition were calculated directly from graphs of optical density (arbitrary units) versus compound concentration following subtraction of blank values.

VEGFR2, sequence (P35968 786-1356): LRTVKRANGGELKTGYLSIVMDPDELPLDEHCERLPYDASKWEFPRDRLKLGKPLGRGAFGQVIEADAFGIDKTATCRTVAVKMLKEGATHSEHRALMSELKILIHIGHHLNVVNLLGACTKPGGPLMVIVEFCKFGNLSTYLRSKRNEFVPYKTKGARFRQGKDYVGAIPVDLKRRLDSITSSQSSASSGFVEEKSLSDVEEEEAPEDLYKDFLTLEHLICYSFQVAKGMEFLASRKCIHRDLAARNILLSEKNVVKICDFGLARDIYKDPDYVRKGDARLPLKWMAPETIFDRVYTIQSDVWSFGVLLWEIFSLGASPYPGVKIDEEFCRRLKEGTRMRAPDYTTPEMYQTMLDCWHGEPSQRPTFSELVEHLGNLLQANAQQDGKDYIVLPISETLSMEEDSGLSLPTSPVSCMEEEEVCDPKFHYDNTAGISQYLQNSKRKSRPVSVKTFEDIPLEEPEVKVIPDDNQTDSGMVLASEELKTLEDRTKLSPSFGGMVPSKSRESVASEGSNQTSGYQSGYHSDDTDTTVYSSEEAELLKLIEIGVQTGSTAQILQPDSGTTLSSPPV

Structure (SMILES)	IC50 [nM]	VEGFR2 potency as shown in this assay (in words)
O=C1Nc2ccccc2C2=NCC(c3ccc(Cl)cc3)CN12 (stereo not drawn) [Example 1, 3-(4-Chlorophenyl)-2,3,4,7-tetrahydro-6H-pyrimido[1,2-c]quinazolin-6-one]	> 10000	–
Nc1cccc(C2CN=C3c4ccccc4NC(=O)N3C2)c1 (stereo not drawn) [Example 2, 3-(3-Aminophenyl)-2,3,4,7-tetrahydro-6H-pyrimido[1,2-c]quinazolin-6-one]	> 10000	–
O=C(Nc1cccc(C2CN=C3c4ccccc4NC(=O)N3C2)c1)Nc1cc(C(F)(F)F)ccc1F (stereo not drawn) [Example 3, 1-[2-Fluoro-5-(trifluoromethyl)phenyl]-3-[3-(6-oxo-3,4,6,7-tetrahydro-2H-pyrimido[1,2-c]quinazolin-3-yl)phenyl]urea]	760	excellent VEGFR2 potency
Nc1ccc(C2CN=C3c4ccccc4NC(=O)N3C2)cc1 (stereo not drawn) [Example 4, 3-(4-Aminophenyl)-2,3,4,7-tetrahydro-6H-pyrimido[1,2-c]quinazolin-6-one]	> 10000	–
O=C(Nc1ccc(C2CN=C3c4ccccc4NC(=O)N3C2)cc1)Nc1cc(C(F)(F)F)ccc1F (stereo not drawn) [Example 5, 1-[2-Fluoro-5-(trifluoromethyl)phenyl]-3-[4-(6-oxo-3,4,6,7-tetrahydro-2H-pyrimido[1,2-c]quinazolin-3-yl)phenyl]urea]	360	excellent VEGFR2 potency
O=C(Nc1ccccc1)Nc1ccc(C2CN=C3c4ccccc4NC(=O)N3C2)cc1 (stereo not drawn) [Example 6, 1-[4-(6-Oxo-3,4,6,7-tetrahydro-2H-pyrimido[1,2-c]quinazolin-3-yl)phenyl]-3-phenylurea]	4750	–
O=C(Nc1ccc(C2CN=C3c4ccccc4NC(=O)N3C2)cc1)Nc1ccc(Cl)c(C(F)(F)F)c1 (stereo not drawn) [Example 7, 1-[4-Chloro-3-(trifluoromethyl)phenyl]-3-[4-(6-oxo-3,4,6,7-tetrahydro-2H-pyrimido[1,2-c]quinazolin-3-yl)phenyl]urea]	340	excellent VEGFR2 potency
CSc1cccc(NC(=O)Nc2ccc(C3CN=C4c5ccccc5NC(=O)N4C3)cc2)c1 (stereo not drawn) [Example 8, 1-[3-(Methylthio)phenyl]-3-[4-(6-oxo-3,4,6,7-tetrahydro-2H-pyrimido[1,2-c]quinazolin-3-yl)phenyl]urea]	1800	–
O=C(Nc1ccc(C2CN=C3c4ccccc4NC(=O)N3C2)cc1)Nc1cccc(Br)c1 (stereo not drawn) [Example 9, 1-(3-Bromophenyl)-3-[4-(6-oxo-3,4,6,7-tetrahydro-2H-pyrimido[1,2-c]quinazolin-3-yl)phenyl]urea]	250	excellent VEGFR2 potency
Cc1cccc(NC(=O)Nc2ccc(C3CN=C4c5ccccc5NC(=O)N4C3)cc2)c1 (stereo not drawn) [Example 10, 1-(3-Methylphenyl)-3-[4-(6-oxo-3,4,6,7-tetrahydro-2H-pyrimido[1,2-c]quinazolin-3-yl)phenyl]urea]	330	excellent VEGFR2 potency
Cc1ccc(NC(=O)Nc2ccc(C3CN=C4c5ccccc5NC(=O)N4C3)cc2)cc1 (stereo not drawn) [Example 11, 1-(4-Methylphenyl)-3-[4-(6-oxo-3,4,6,7-tetrahydro-2H-pyrimido[1,2-c]quinazolin-3-yl)phenyl]urea]	4030	–
COc1ccc(NC(=O)Nc2ccc(C3CN=C4c5ccccc5NC(=O)N4C3)cc2)cc1 (stereo not drawn) [Example 12, 1-(4-Methoxyphenyl)-3-[4-(6-oxo-3,4,6,7-tetrahydro-2H-pyrimido[1,2-c]quinazolin-3-yl)phenyl]urea]	> 10000	–

Now from value to molecule:

IC50 [nM]	VEGFR2 potency as shown in this assay (in words)	Structure (SMILES)
1470	–	COc1cccc(NC(=O)Nc2ccc(C3CN=C4c5ccccc5NC(=O)N4C3)cc2)c1 (stereo not drawn) [Example 13, 1-(3-Methoxyphenyl)-3-[4-(6-oxo-3,4,6,7-tetrahydro-2H-pyrimido[1,2-c]quinazolin-3-yl)phenyl]urea]
–	lack of potency	CC(C)NC(=O)Nc1ccc(C2CN=C3c4ccccc4NC(=O)N3C2)cc1 (stereo not drawn) [Example 14, 1-Isopropyl-3-[4-(6-oxo-3,4,6,7-tetrahydro-2H-pyrimido[1,2-c]quinazolin-3-yl)phenyl]urea]
6380	excellent VEGFR2 potency	Cc1ccoc1C(=O)Nc1cccc(C2CN=C3c4ccccc4NC(=O)N3C2)c1 (stereo not drawn) [Example 15, 3-Methyl-N-[3-(6-oxo-3,4,6,7-tetrahydro-2H-pyrimido[1,2-c]quinazolin-3-yl)phenyl]-2-furamide]
> 10000	–	Cc1ccoc1C(=O)Nc1ccc(C2CN=C3c4ccccc4NC(=O)N3C2)cc1 (stereo not drawn) [Example 16, 3-Methyl-N-[4-(6-oxo-3,4,6,7-tetrahydro-2H-pyrimido[1,2-c]quinazolin-3-yl)phenyl]-2-furamide]
> 10000	–	O=C(Nc1ccc(C2CN=C3c4ccccc4NC(=O)N3C2)cc1)c1cccc(C(F)(F)F)c1 (stereo not drawn) [Example 17, N-[4-(6-oxo-3,4,6,7-tetrahydro-2H-pyrimido[1,2-c]quinazolin-3-yl)phenyl]-3-(trifluoromethyl)benzamide]
> 10000	–	CNc1ccc(C2CN=C3c4ccc(C(=O)OC)cc4NC(=O)N3C2)cc1 (stereo not drawn) [Example 18, Methyl 3-[4-(methylamino)phenyl]-6-oxo-3,4,6,7-tetrahydro-2H-pyrimido[1,2-c]quinazoline-9-carboxylate]
> 10000	lack of potency	COC(=O)c1ccc2c(c1)NC(=O)N1CC(c3ccc(N(C)C(=O)CN4CCN(C)CC4)cc3)CN=C21 (stereo not drawn) [Example 19, Methyl 3-(4-{methyl[(4-methylpiperazin-1-yl)acetyl]amino}phenyl)-6-oxo-3,4,6,7-tetrahydro-2H-pyrimido[1,2-c]quinazoline-9-carboxylate]
> 10000	lack of potency	CN1CCN(CC(=O)Nc2ccc(C3CN=C4c5ccccc5NC(=O)N4C3)cc2)CC1 (stereo not drawn) [Example 20, 2-(4-Methylpiperazin-1-yl)-N-[4-(6-oxo-3,4,6,7-tetrahydro-2H-pyrimido[1,2-c]quinazolin-3-yl)phenyl]acetamide]
> 10000	–	COC(=O)c1ccc2c(c1)NC(=O)N1CC(c3ccc(N(C)C(=O)Nc4cc(C(F)(F)F)ccc4F)cc3)CN=C21 (stereo not drawn) [Example 21, Methyl 3-{4-[({[2-fluoro-5-(trifluoromethyl)phenyl]amino}carbonyl)(methyl)amino]phenyl}-6-oxo-3,4,6,7-tetrahydro-2H-pyrimido[1,2-c]quinazoline-9-carboxylate]
> 10000	–	Cc1cc(C2CN=C3c4ccccc4NC(=O)N3C2)ccc1N (stereo not drawn) [Example 22, 3-(4-amino-3-methylphenyl)-2,3,4,7-tetrahydro-6H-pyrimido[1,2-c]quinazolin-6-one]
> 10000	–	Cc1cc(N)ccc1C1CN=C2c3ccccc3NC(=O)N2C1 (stereo not drawn) [Example 23, 3-(4-amino-2-methylphenyl)-2,3,4,7-tetrahydro-6H-pyrimido[1,2-c]quinazolin-6-one]
1500	–	Cc1cccc(NC(=O)Nc2ccc(C3CN=C4c5ccccc5NC(=O)N4C3)c(C)c2)c1 (stereo not drawn) [Example 24, 1-[3-methyl-4-(6-oxo-3,4,6,7-tetrahydro-2H-pyrimido[1,2-c]quinazolin-3-yl)phenyl]-3-(3-methylphenyl)urea]
390	–	Cc1cc(NC(=O)Nc2cc(C(F)(F)F)ccc2F)ccc1C1CN=C2c3ccccc3NC(=O)N2C1 (stereo not drawn) [Example 25, 1-[2-fluoro-5-(trifluoromethyl)phenyl]-3-[3-methyl-4-(6-oxo-3,4,6,7-tetrahydro-2H-pyrimido[1,2-c]quinazolin-3-yl)phenyl]urea]
